{
  "source": "patent US6399580B1",
  "about": "“Methods and compositions for stimulating tissue growth and epithelial moisturization” (The Regents of the University of California, priority 1994, dated 2002)",
  "key": {"[1]": {"system": "acetone treated skin sites", "assay": "Barrier recovery of acetone treated skin sites", "format": "in vivo, mouse", "details": "MUX 0.5 or 1.0 %(wt:vol) topical"}, "murine epidermis": {"system": "murine epidermis", "assay": "Epidermal DNA synthesis, [3H]-thymidine incorporation in vivo", "parameters": "species or system mouse", "method": "To assess the effects of a topical β-glucocerebrosidase inhibitor, conduritol-B-epoxide (CBE) in epidermal DNA synthesis two slightly different dosage protocols have been employed. In all cases, mice were treated topically with 20 μl to 40 μl of 250 nmol/μl CBE bid for 2-5 days on the right flank. On the last day, the mice were injected intraperitoneally with ^3H-thymidine (1 μCi/G body weight) diluted 1:10 in 100-200 μl isotonic NaCl. After one hour the mice were sacrificed. Whole skin was excised and subcutaneous fascia and fat were removed by scraped. Skin samples were placed dermis side downward onto 10 mM EDTA in phosphate buffered saline (PBS-CMF; pH 7.4) and incubated at 37° C. for 40 min. The skin was blotted dry with a tissue and epidermis removed by scraping with a surgical blade. The epidermis was minced into small pieces and placed in microcentrifuge vials. Samples were immediately snap frozen and stored in liquid nitrogen until immediately prior to preparation of the epidermal homogenates. 300 μl of 10 mM EDTA in PBS-CMF (pH 7.4) was added to all samples which then underwent tissue homogenization using Polytron (15 sec, ×2 on ice. Polytron tip was rinsed between each homogenization with 400 μl 10 mM EDTA in PBS-CMF. Rinses were combined with same original samples. Samples were sonicated twice for 10 sec on ice. 100 μl of 20% TCA was added and left for 10 min at 4° C. Samples were centrifuged at 2000×g at 4° C. for 5 min. The supernatant was discarded. 500 μl of 5% TCA was added and the samples were centrifuged at 2000×g at 4° C. for 5 min. The supernatant was discarded and this step was repeated again. The precipitate was resuspended in 1ml of 1N NaOH and vortexed. 400 μl or NaOH plus 400 μl of 1N HCl with 8ml Ecolume was used as a background blank. Vials were counted the following day.\nWe next determined whether the topical administration of structurally similar but less efficient β-glucosidase inhibitors would induce epidermal hyperproliferation. Animals were treated topically twice daily with either Conduritol-B-epoxide, Conduritol B (CB), or deoxynojirimycin (dNJM), each at 40 μl of 250 nmol/μl twice daily, as described in Example 10. After 24 hours, [^3H]-thymidine was injected intraperitoneally and incorporation of thymidine into DNA was determined (FIG. 26 A&B). […] This reduced activity is a result of the relative availability of these inhibitors to in vivo tissues.\nAnimals were treated as described in Example 10.\nWe next determined whether occlusion with a vapor-impermeable membrane would enhance the effects of a β-glucocerebrosidase inhibitor on epidermal DNA synthesis. […] After 24 hrs animals were injected with [^3H]-thymidine, and incorporation into DNA was determined (Proksch, et. al., J. Clin. Invest. 87:1668-1673, 1991)."}, "[2]": {"system": "cultured human keratinocytes", "assay": "[3H]-thymidine incorporation and DNA content in cultured human keratinocytes", "format": "cell-based", "details": "for DNA content / thymidine incorporation: 24 hours of treatment, Cer 5 or 10 μM, FIG. 9", "method": "To determine the ability of exogenous glucosylceramides (GlcCER) to stimulate epidermal proliferation, we applied various concentrations of GlcCER to cultural human keratinocytes (third passage). Keratinocytes were isolated from human neonatal foreskins by a modification of the method of Pittelkow, M. R. and Scott, R. E. ( (1986) Proc. Mayo Clin. 61:771-777) Cells were added to 100 mm plastic Petri dishes at a density of 1 to 2×10^4 cells/cm^2, and grown initially in 10mls of Keratinocyte Growth Medium (KGM) (Clonetics, San Diego, Calif.) with 0.07 mM calcium. The cultures were maintained at 35° C. under 5% CO2 in air, with medium changes performed three times weekly. After the cells reached 70%-80% confluence, they were switched to KGM medium containing 1.2 mM calcium, and harvested at one week post-confluence. GlcCER was added for the last 24 hours of culture and ^3H-thymidine (1 μCi/ml) was added one-to-three hours prior to harvesting of cells for measurement of DNA synthesis and DNA content. (Proksch, E., et al., J. Clin. Invest. 87:1668-1673 (1991).\nUsing the method described in Example 5, incorporation of [^3H]-thymidine and total DNA content were measured in cultured human keratinocytes (CHK) grown in serum-free keratinocyte growth medium (KGM) supplemented with 0.07 mM .calcium. Cultured cell were further supplemented as indicated, with ceramide (Cer; 5 or 10 μM), glucosylceramide (GlcCER; 1.25 or 2.5 μM), or a combination of ceramide and glucosylceramide (10 and 1.25 μM, respectively).\n(§1) CHK cells were grown in serum-free KGM supplemented both with 0.07 mM calcium and 10 μM ceramide (CER). Increasing concentrations of glucosylceramide were added (2.5 to 10 μM), and both [^3H]-thymidine (1 μCi/ml) and [^14C]-leucine (1 μCi/ml) incorporation assays were performed.\nCHK cells were grown (as in Example 6)in serum-free KGM (0.07 mM calcium) and supplemented with increasing concentrations of ceramide (CER) alone (dark bars), glucosylceramide (GlcCer) alone (back row), or the combination of ceramide (10 μM) with increasing glucosylceramide (front row). […] Glucosylceramide alone again stimulated thymidine incorporation (>20%) at low concentrations (1.25 and 2.5 μM).\nCHK cells were grown (as in Example 6) in serum-free KGM ([…]) supplemented with glucosylceramide (GlcCER) alone, or in combination with the β-glucocerebrosidase-inhibitor, CBE (3 or 10 μM) (FIG. 12). Incorporation of [^3H]-thymidine was measured at 24 hours following supplementation, and values are reported as percent of unsupplemented controls (mean ±S.D.; n>6). […] A low CBE concentration (3 μM) was ineffective."}, "CHK cells": {"system": "CHK cells", "assay": "[14C]-leucine incorporation in CHK cells", "format": "cell-based, human", "details": "GlcCER 2.5 and 5.0 μM with 10 μM ceramide; FIG. 10", "method": "as §1"}, "[3]": {"details": "topical 40 μl of 250 nmol/μl twice daily, after 24 hours"}, "[4]": {"details": "direct application of lipid alone, treated as in Example 10, FIG. 26B"}, "[5]": {"details": "GlcCER 1.25 μM, 24 hours, NHK cells, n=6±S.E."}},
  "note": "Values joined by “and” are separate entries in the source; they are usually repeats but may differ in a detail not shown here. Identical values can stand only once.",
  "data": [
    {"compound": "Cc1cc(=O)oc2cc(O[C@@H]3OC[C@@H](O)[C@H](O)[C@H]3O)ccc12", "note": "[MUX, 4-methylumbelliferyl xyloside]", "values": [
      {"measurement": "barrier-disrupting effect", "setting": "[1]", "result": "comparable to the two conduritol is compounds (BrCBE and CBE)"},
      {"measurement": "barrier recovery", "setting": "[1]; at 2, 4 and 6 hours", "result": "delayed barrier recovery"}
    ]},
    {"compound": "OC[C@H]1NC[C@H](O)[C@@H](O)[C@@H]1O", "note": "[dNJM, deoxynojirimycin]", "values": [
      {"measurement": "epidermal DNA synthesis ([3H]-thymidine incorporation)", "setting": "murine epidermis; [3]", "result": "Neither CB or dNJM at this concentration induced an increase in DNA synthesis"}
    ]},
    {"compound": "galactosylceramide [GalCER]", "values": [
      {"measurement": "epidermal DNA synthesis ([3H]-thymidine incorporation)", "setting": "murine epidermis; [4]", "result": "Neither GalCER nor ceramide (CER) alone at this concentration (c.f. structures in FIGS. 4 and 6) induced an increase"}
    ]},
    {"compound": "ceramide", "values": [
      {"measurement": "epidermal DNA synthesis ([3H]-thymidine incorporation)", "setting": "murine epidermis; [4]", "result": "Neither GalCER nor ceramide (CER) alone at this concentration (c.f. structures in FIGS. 4 and 6) induced an increase"},
      {"measurement": "DNA content", "setting": "[2]; GlcCER 1.25 μM", "result": "corresponding decrease in DNA content"},
      {"measurement": "thymidine incorporation", "setting": "[2]; GlcCER 1.25 μM", "result": "inhibited thymidine incorporation"},
      {"measurement": "[3H]-thymidine incorporation, of control", "setting": "[2]; ceramide alone 10 μM, FIG. 11", "result": "35 % of control"},
      {"measurement": "inhibition of [3H]-thymidine incorporation", "setting": "[2]; ceramide alone 10 μM, FIG. 11", "result": "approximately 65%"}
    ]},
    {"compound": "glucosylceramide [GlcCER]", "values": [
      {"measurement": "epidermal DNA synthesis, combination of GlcCER with CBE", "setting": "murine epidermis; FIG. 26B", "result": "additive effect"},
      {"measurement": "epidermal DNA synthesis ([3H]-thymidine incorporation)", "setting": "murine epidermis; [4]", "result": "significant increase"},
      {"measurement": "leucine incorporation", "setting": "CHK cells", "result": "not altered"},
      {"measurement": "keratinocyte proliferation, further increase", "setting": "[2]; 5 μM", "result": "No further increase"},
      {"measurement": "DNA content", "setting": "[2]; GlcCER 1.25 μM", "result": "increased"},
      {"measurement": "thymidine incorporation", "setting": "[2]; GlcCER 1.25 μM", "result": "increased"},
      {"measurement": "thymidine incorporation, increase over ceramide alone", "setting": "[2]; GlcCER 1.25 μM co-administered with ceramide 10 μM, 24 hours", "result": "approximately 2 fold"},
      {"measurement": "DNA Content (% of Control)", "setting": "[2]; [5]", "result": "124 ± 2 % of Control and 111 ± 6 % of Control"},
      {"measurement": "^3H]-Thym. Incorporation (% of control)", "setting": "[2]; [5]", "result": "118 ± 0.5 % of control and 117 ± 2.0 % of control"},
      {"measurement": "override of the ceramide effect on thymidine incorporation", "setting": "[2]; GlcCER 10 μM with 10 μM ceramide", "result": "did not override the ceramide effect"},
      {"measurement": "thymidine incorporation relative to ceramide-containing control", "setting": "[2]; GlcCER 2.5 and 5.0 μM with 10 μM ceramide, FIG. 10", "result": "stimulated"},
      {"measurement": "concentration of maximum effect on keratinocyte proliferation", "setting": "[2]; cultured human keratinocytes, 24 hours", "result": 1.25, "unit": "µM"},
      {"measurement": "inhibitory effect of ceramide on thymidine incorporation", "setting": "[2]; glucosylceramide 1.25 μM coadministered with ceramide 10 μM", "result": "reversed"},
      {"measurement": "stimulation of thymidine incorporation", "setting": "[2]; glucosylceramide alone, 1.25 and 2.5 μM", "result": "> 20", "unit": "%"},
      {"measurement": "proliferation rates", "setting": "[2]; higher concentrations of GlcCER (above 1.25 and 2.5 μM)", "result": "decreased"}
    ]},
    {"compound": "O[C@H]1[C@H](O)[C@@H](O)C=C[C@@H]1O", "note": "[CB, Conduritol B]", "values": [
      {"measurement": "epidermal DNA synthesis ([3H]-thymidine incorporation)", "setting": "murine epidermis; [3]", "result": "Neither CB or dNJM at this concentration induced an increase in DNA synthesis"}
    ]}
  ]
}
